These results are taken from patent US20220233556A1, “COMPOSITIONS AND METHODS FOR TREATING OPHTHALMIC CONDITIONS” (Medicon Pharmaceuticals, Inc., priority 2017, published 2022).

For one data set, the system named is corneal sensitivity. Nature of the data set: Corneal touch threshold (CTT) assay, Cochet-Bonnet aesthesiometer. Format: in vivo, rabbits. The note with it: commercially available form, one eye drop. The procedure:
FIGS. 10A and 10B illustrate the ocular analgesic effect of PS. FIG. 10A: One drop of PS 0.5%, vehicle, or lidocaine was applied to one eye of rabbits (n=4/group) and the corneal touch threshold (CTT) was determined using an Eshesiometer. Vehicle had no effect on CTT (not shown; overlaps with the 0 value horizontal line). Values=mean±SEM. FIG. 10B: PS 0.5% in formulations differing in pH as indicated produced different analgesic responses in rabbits. The areas under each curve (AUC), indicted in the figure, that quantify these responses vary by as much as >5 fold. Values are the average of 2; all were within 11% of each other.
FIGS. 11A and 11B illustrates the effect of various concentrations of PS on corneal sensitivity determined by the corneal touch threshold (CTT) assay. The CTT score is expressed as length of filament. Measurements were performed at the indicated time points after a single application of PS as an eye drop. Rabbits with normal or dry eyes were studied (n=6 eyes per group). Dry eyes were induced by Concanavalin A injection as described in the text. The % PS content in each study is shown. The numbers in parentheses indicate the corresponding value of the area under the curve. Values=mean±SEM.
FIGS. 12A and 12B illustrate the effect of various drugs on corneal sensitivity determined by the corneal touch threshold (CTT) assay described herein. Each drug was used in its commercially available form; one eye drop of each was applied. The numbers in parentheses indicate the corresponding value of the area under the curve. Values=mean±SEM.
The analgesic effect of PS was examined on the surface of the eye by determining the corneal touch threshold (CTT) using the Luneau Cochet-Bonnet Aesthesiometer (Western Ophthalmics, Lynwood, Wash.) an adjustable nylon monofilament with a defined diameter, which is applied in different lengths to the center of the cornea.
In this embodiment, the composition of the PS preparation was: 0.5% PS, 18% (2-hydroxypropyl)-β-cyclodextrin (HP-β-CD), 1-4% Tween 80. Preparation Method: HP-β-CD was dissolved in purified water maintained in a 50° C. water bath. PS was added into this solution and kept at 50° C. overnight with stirring at 500 rpm until PS was fully dissolved. Tween 80 was added into the PS HP-β-CD solution, which was then centrifuged at 3000 rpm for 10 min to remove undissolved particles. The supernatant was collected and pH was adjusted to the desired value using a NaOH solution. The analgesic effect of PS was examined as above.
The effect of PS and other compounds on corneal sensitivity was determined in rabbits with normal or dry eyes using the CTT assay as above; DED was induced by Concanavalin A as previously described. The CTT score, expressed as filament length in mm, of normal eyes was 5.56±0.11 mm (mean±SEM for this and subsequent values) and in dry eyes 4.17±0.12 mm; the difference between the two is statistically significant (p<0.0001).

The subject of another data set is PGE2. Kind of data set: PGE2 levels in tears and cornea of rabbits (ELISA). Format: in vivo. The settings on record: rabbits with Con A-induced DED, administered once topically, 1 h later. The procedure:
FIGS. 9A and 9B illustrate that PS preserves the levels of PGE2 in tears and the cornea. In FIG. 9A, PGE2 levels were determined by ELISA in tears collected on day 7 from naïve rabbits and rabbits with Con A-induced DED treated for 1 week with vehicle or PS. In FIG. 9B, PGE2 levels were further examined. Upper panel: PGE2 levels in the tears of naïve rabbits and rabbits with Con A-induced DED treated for 1 h with PS or ketorolac as in Methods. Lower panel: PGE2 levels in the corneal tissue of naïve rabbits and rabbits with Con A-induced DED treated for 1 week with vehicle or PS or ketorolac or diclofenac. n=8 eyes/group. Values=mean±SEM.
It was determined that the levels of PGE2 in rabbit tears in three groups of rabbits, naïve and those with Con A-induced DED that were treated for 1 week either with PS or vehicle.
In an acute experiment, administered once topically to the eyes of four groups of rabbits with Con A-induced DED was one of the following: vehicle, PS, ketorolac or diclofenac; the latter two are NSAIDs used for the treatment of ocular inflammation and pain. It was determined that the levels of PGE2 in the cornea of these rabbits obtained 1 h later as well as in the corneas of naïve rabbits.
Background: ELISA stands for enzyme-linked immunosorbent assay.

In a further data set the test system is Con A-induced dry eye. Nature of the data set: Con A-induced dry eye disease (DED) in rabbits: TBUT, tear osmolarity, STT, tear lactoferrin. The note with it: 1 week of treatment, comparison with ophthalmic NSAIDs (FIG. 5). Format: in vivo, New Zealand White (NZW) rabbits. The procedure: Con A was injected under ultrasound guidance into all the lacrimal glands and the success of the injection was verified by a post-injection ultrasound image (see FIG. 1 and FIG. 2). […] This variation explains why the blind injections recommended in the original method are often unsuccessful. This was confirmed by mixing the Con A solution with methylene blue and tracking its course after injection. In about ⅓ of the cases, Con A ended up outside the gland.
Four parameters of efficacy were evaluated instead of the usual one or two. They include (a) the tear break up time (TBUT), determined using 0.2% fluorescein over the eye and recording the time taken to develop black dots, lines or obvious disruption of the fluorescein film; (b) tear osmolarity, measured using TearLab Osmolarity Test and following the manufacturer's instructions (TearLab Corp., San Diego, Calif.); (3) Schirmer tear test (STT), determined using Schirmer strips (EagleVision, Denville, N.J.) inserted between the cornea and the palpebral conjunctiva at the mid-point of the lower lid and measuring the length of moistened strip at 5 min; and (4) tear lactoferrin levels measured by ELISA kit (MyBiosource, San Diego, Calif.) following the instructions of the manufacturer. All four have been used in clinical practice and correlate with the clinical activity of the disease. The STT is the least reliable and, as result, it is clinically used less than half as frequently as TBUT.
The injections of Con A to the lacrimal glands were repeated weekly as needed. When longer than a 1-week periods of study are needed, repeat injections prolong dry eye for at least 3 weeks, making the originally acute model chronic.
PS Suppresses Con A—Induced Dry Eye in Rabbits. The effect of PS on dry eye was determined in New Zealand White (NZW) rabbits, 2-3 kg (Charles River Labs, Waltham, Mass.). These rabbits were housed singly in rooms with strict temperature (70±5° F.) and humidity (45±5%) control and acclimated for at least 2 weeks prior to induction of dry eye by injection of Con A as above. NZW rabbits with Con A-induced dry eye (three sets of injections) were treated with PS formulated as nanoparticles and administered topically as eye drops 3×/day for 21 days, starting on the day of Con A injection. […] Similar results were obtained on days 5 and 14 (data not shown). […]
The efficacy of lower concentrations of PS. The efficacy of lower concentrations of PS, 0.1% and 0.2% in DED, was also evaluated. The same animal model (rabbits with Concanavalin A-induced DED) was used. The same methodology described herein was followed, except that PS was administered as two eye drops per eye (˜25 μL each) four times a day. PS was formulated in: 10% (2-hydroxypropyl)-β-cyclodextrin, 4% Tween 80, 2.5% Vitamin E TPGS, 1.4% polyvinyl alcohol (13,000-26,000 molecular weight), 0.001% polyquad, as described herein. The Table below summarizes the corresponding findings: […]

The nature of data set [1]: Ocular PK study of PS nanoparticles (mPEG-PLA), topical eye drops. Format: in vivo, New Zealand white rabbits. The arrangement: AUC(0-t) / AUC0-16h, cornea / AUC0-16h, conjunctiva: concentration or dose not given beside the values. The settings on record: PS and its metabolites. The procedure:
Composition: ˜3.0-3.5% PS, 96.5˜97% methoxy poly(ethylene glycol)-poly(lactide) (mPEG-PLA).
Preparation Method: Oil phase: 150 mg of PS and 1 g of PEG-PLA (Akina, Inc) were dissolved in 20 mL dichloromethane (DCM). Water phase: 365 mg of sodium cholate were dissolved in 60 ml of purified water. 5 mL of the oil phase was gently added into 15 mL of the water phase in a 50 mL Eppendorf conical tube. To create an emulsion, we used robe sonication for 2 min at 75% output (Branson 150, Fisher Scientific™, USA); the watt output was 12-13. The emulsion was transferred into a 100 mL beaker and stirred overnight at 600 rpm in a chemical hood until the DCM was fully evaporated. This was followed by centrifugation at 14,000 rpm for 1 h (Dupont, RC-5C). Then, the supernatant was transferred to another tube into which 3 mL of PBS were added to resuspend the nanoparticles. The nanoparticle solution was centrifuged for 6-7 seconds to remove aggregates. This supernatant was the final preparation.
Ocular PK study: PS formulated in nanoparticles as above was administered topically as eye drops to New Zealand white rabbits. The biodistribution of PS in ocular tissues at the indicated time points post administration was determined by HPLC.

Data set [2] can be described thus: Rabbit ocular PK study of PS emulsion (2% PS). Format: in vivo, New Zealand rabbits. The note with it: 2% PS emulsion, three 25 μL eye drops; PS and its metabolites. The procedure: A formulation includes 2% PS; 5% Propylene glycol, 10% Mineral oil, 4% Tween 60, 4% Tween 80, 10% (2-hydroxypropyl)-β-cyclodextrin (HP-β-CD). Preparation method (2 mL scale): Oil phase: weight PS into glass vial, add propylene glycol, stir at 50° C. to obtain a clear solution. Then add mineral oil, stir to obtain a clear solution. Water phase: Dissolve HP-β-CD, […] and Tween 80 into water. Add water phase into oil phase, probe-sonicate for 5 sec, 8 times, with 5 sec intervals. Resultant emulsion is filtrated through 0.22 μm filter.
Rabbit ocular pharmacokinetic (PK) study: PS was administered to New Zealand rabbits topically to the eye; as three 25 μL eye drops, 5 min apart. Rabbits were euthanized at eight specified time points between 0.25 to 16 h, ocular tissues were dissected and PS was extracted with acetonitrile and its tissue levels as well as those of its metabolites were determined by HPLC as described (Xie G. et al., Br J Pharmacol 165:2′52-2166; 2012).

For `CS(=O)(=O)c1cccc(C[C@H](NC(=O)c2c(Cl)cc3c(c2Cl)CCN(C(=O)c2ccc4ccoc4c2)C3)C(=O)O)c1` [Lifitegrast, lifitegrast, reference compound], in the data set with corneal sensitivity, the “effect on corneal sensitivity (CTT), dry eyes” value is “lack any ocular analgesic effect” and the “effect on corneal sensitivity (CTT), normal eyes” value is recorded as “lack any ocular analgesic effect”.
Regarding `Nc1c(CC(=O)O)cccc1C(=O)c1ccc(Br)cc1` [bromfenac, reference compound], in the data set with corneal sensitivity, the “effect on corneal sensitivity (CTT), dry eyes” value is recorded as “no analgesic effect” and the “effect on corneal sensitivity (CTT), normal eyes” value was “display analgesic efficacy”.
As to `O=C(O)Cc1ccccc1Nc1c(Cl)cccc1Cl` [diclofenac, reference compound], in the data set with PGE2, the “PGE2 levels in the cornea” value was “suppressed nearly completely”. Besides, in the data set on Con A-induced dry eye, the STT entry was “failed to improve”, the TBUT result was “failed to improve” and the osmolarity result is “failed to improve”.
On to `CSc1ccc(/C=C2/C(C)=C(CC(=O)O)c3cc(F)ccc32)cc1` [sulindac sulfide], for which, in data set [1], the Cmax, conjunctiva came to 0 nM and the Cmax, cornea was 600 nM. In addition, in data set [2], the “Cmax, aqueous humor” value is given as 2.0 μm; the “Cmax, conjunctiva” value is reported as 0.0 μm; the “Cmax, cornea” value was 0.0 μm.
For `CC1=C(CC(=O)O)c2cc(F)ccc2/C1=C\c1ccc(S(C)(=O)=O)cc1` [sulindac sulfone], in data set [1], the “AUC0-16h, conjunctiva” value was 7.3 µM·h; the “AUC0-16h, cornea” value turned out to be 10 µM·h; the Cmax, conjunctiva is 1600 nM; the Cmax, cornea was determined as 1300 nM. The “Tmax, cornea” value in data set [1] worked out at 4 h. Further, in data set [2], the “AUC0-16h, conjunctiva” value worked out at 3.2 µM·h; the “AUC0-16h, cornea” value was 24.4 µM·h; the “Cmax, aqueous humor” value worked out at 0.0 μm; the “Cmax, conjunctiva” value is 0.8 μm. For the same compound, in data set [2], the “Cmax, cornea” value is reported as 4.0 μm; the “Tmax, aqueous humor” value was determined as 0.0 h; the “Tmax, conjunctiva” value is given as 2.0 h; the “Tmax, cornea” value came out at 4.0 h.
`CC1=C(CC(=O)O)c2cc(F)ccc2/C1=C\c1ccc([S+](C)[O-])cc1` (stereo not shown) [sulindac, reference compound]: in data set [1], the Cmax, conjunctiva is 3800 nM and the Cmax, cornea was 3600 nM. Besides, in data set [2], the “Cmax, aqueous humor” value stood at 1.0 μm; the “Cmax, conjunctiva” value is 4.2 μm; the “Cmax, cornea” value is given as 8.7 μm.
